The record followed here is ChEMBL document CHEMBL1126313, “Cysteine protease inhibition by azapeptide esters” (J Med Chem, 1992).

Molecules are shown by their SMILES.

This experiment concerns the target T1, Papain (Carica papaya) (UniProt P00784).
T1 sequence (whole entry): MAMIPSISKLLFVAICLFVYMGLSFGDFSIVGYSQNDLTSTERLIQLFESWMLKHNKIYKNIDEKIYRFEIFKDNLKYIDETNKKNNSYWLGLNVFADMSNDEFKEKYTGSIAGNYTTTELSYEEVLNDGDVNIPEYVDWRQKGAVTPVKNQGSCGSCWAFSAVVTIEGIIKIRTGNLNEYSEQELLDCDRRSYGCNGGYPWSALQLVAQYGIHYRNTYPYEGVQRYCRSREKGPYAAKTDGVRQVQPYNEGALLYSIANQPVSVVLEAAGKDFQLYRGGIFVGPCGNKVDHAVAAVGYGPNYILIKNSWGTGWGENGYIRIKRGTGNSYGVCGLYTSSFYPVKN
As to the kind of experiment: The compound was tested for Rate of Inhibition of Papain.
`CC(=O)N[C@@H](Cc1ccccc1)C(=O)NN(C)C(=O)OCC(C)C` returned a ki/Ki of 0.02 M⁻¹ s⁻¹. As for `CC(=O)N[C@@H](Cc1ccccc1)C(=O)NNC(=O)Oc1ccccc1`, the figure is above 11000 M⁻¹ s⁻¹; as for `CC(=O)N[C@@H](Cc1ccccc1)C(=O)NNC(=O)OCC(C)C`, 18 M⁻¹ s⁻¹; as for `COC(=O)NNC(=O)[C@H](Cc1ccccc1)NC(C)=O`, 13 M⁻¹ s⁻¹.
